# Patent publication US20080249061A1, “Photostable Pharmaceutical Composition Containing Brivudine for the Treatment of Herpetic Keratitis” (priority 2005, published 2008)
# “And” between values parts separate entries of the source, which are not always exact repeats. Equal values may be shown once.
# Assays:
# clinical VZV strains = conditions: 13 clinical VZV strains; cited from earlier work
# clinical HSV-1 strains = conditions: panel of 23 clinical HSV-1 strains; cited from earlier work
# [1] = Photostability test (SUNTEST CPS+, 320-800 nm); assay type: physicochemical; conditions: after irradiation of one hour, no film former contained
# Protocol: The photo stability tests themselves have been performed using a SUNTEST CPS+ instrument of the company Atlas. The applied irradiation energy is indicated below: • Irradiation energy (time): 1.3 J/cm^2 (10 min), 2.6 J/cm^2 (20 min), 4.0 J/cm^2 (30 min), 8.9 J/cm^2 (67 min), 26.7 J/cm^2 (201 min) • Wave length range: 320-800 nm
# [2] = additional studies on drug product-tolerability; assay type: in vivo
# From the text: Formulations based on film formers are commonly used as artificial tear drops. They are approved since decades without any general or special adverse effects published.
# [3] = intra ocular bioavailability study in rabbit
# [4] = test system: clinical isolates (HSV-1); conditions: panel of 20 clinical isolates, two similar assays; cited from earlier work
SMILES,mean IC50 (clinical VZV strains),mean IC50 (clinical HSV-1 strains),starting amount of brivudine recovered [1],influence of brivudine on the drug product-tolerability ([2]; formulations based on film formers),systemic absorption in the blood ([2]; in vivo),"time brivudine remains in the ocular region ([2]; ocular region, other: ophthalmic (topical ocular))",active in blood [3],presence of the active substance in the cornea [3],mean IC50 [4]
Nc1nc2c(ncn2COCCO)c(=O)[nH]1 [acyclovir],0.2 µg/mL,0.92 µg/mL,,,,,,,
"O=c1[nH]c(=O)n([C@H]2C[C@H](O)[C@@H](CO)O2)cc1/C=C/Br [brivudine, (E)-5-(2-bromovinyl)-2′-deoxyuridine]",0.001 µg/mL,0.52 µg/mL,33.4%,no deterioration of the pharmaceutical properties was observed,without systemic absorption in the blood,more than 2 hours,never found in blood,≥ 6 h,
Nc1nc2c(ncn2CCC(CO)CO)c(=O)[nH]1 [penciclovir],0.91 µg/mL,,,,,,,,0.6 µg/mL and 0.8 µg/mL
